# Measured values published in patent US7157256B2, “Method for producing para-hydroxystyrene and other multifunctional aromatic compounds using two-phase extractive fermentation” (E. I. du Pont de Nemours and Company, priority 2003, dated 2007).
# “And” between values parts separate entries of the source, which are not always exact repeats. Equal values may be shown once.
# Legend:
# [1] = tested on: E. coli WWQ51.1; test: Growth of E. coli with added pHS in two-phase fermentation; type: cell-based; conditions: 0.5 mL pHS (10% w/v) added; 20 mL 2-Undecanone; IPTG 0.5 mM
# Description: The strain used in this study was E. coli WWQ51.1, as described in Example 3. The conditions were similar to those described in Example 3. Eight test cultures were inoculated; six contained 20 mL of 2-undecanone, the other two contained 20 mL of 1-undecanol. A 10% w/v solution of pHS in propylene glycol (0.5 mL), obtained from Sigma-Aldrich, Milwaukee, Wis., was added to two of the cultures containing 2-undecanone, as specified in Table 7.
# The cultures were incubated in 250 mL baffled flasks at 35° C. and 300 rpm for 24 h in an incubator shaker. After this time, a sample of the aqueous phase was withdrawn and the pH, OD550, and the concentration of the fermentation products were measured, as described supra. The organic phase was also sampled and the concentration of CA and pHS were determined using HPLC, as described supra.
# [2] = tested on: E. coli TY1 (DGL430); test: Effect of pHCA and pHS on growth and fermentation of E. coli, shake flasks; type: cell-based; conditions: E. coli TY1 shake flask
# Description: This study was done using E. coli TY1 (DGL430), a tyrosine overproducing strain obtained from OmniGene Bioproducts, Inc. (Cambridge, Mass.). This strain also produces phenylalanine. The seed culture of this strain was propagated in a medium consisting of MgSO4.7H2O (0.5 g/L), (NH4)2SO4 (4 g/L), MOPS (20.9 g/L) and 10 mL of phosphate solution. The pH of the seed medium was adjusted to pH 6.8 and then the medium was steam-sterilized. The phosphate solution contained KH2PO4 (57.3 g/L) and K2HPO4 (110.2 g/L) and was adjusted to pH 6.8. The following solutions were then aseptically added to the seed medium to give the final concentration given in parentheses: thiamine (1 mg/L), glucose (1 g/L), lactose (15 g/L), 5 mL of a trace element solution, and tetracycline (5 mg/L). The trace element solution contained citric acid (10 g/L), CaCl2.2H2O (1.5 g/L), FeSO4.7H2O (5 g/L), ZnSO4.7H2O (0.39 g/L) and CuSO4.5H2O (0.38 g/L). The seed medium was inoculated from a frozen pre-seed culture and was grown in 250 mL baffled flasks in an Innova 4000 incubator shaker (New Brunswick Scientific Co., Edison, N.J.), incubated at 35° C. and 300 rpm for 12–16 h. One milliliter of this seed culture was used to inoculate each of the test cultures.
# The test medium was 50 mL of an aqueous solution containing: (NH4)2SO4 (4 g), 1 mL of phosphate solution, MgSO4.7H2O (0.5 g), and MOPS (20.9 g), with the pH adjusted to 7.0. After sterilization of this medium, thiamine (1 mg/L), 5 mL of trace element solution, glucose (2 g/L), lactose (15 g/L), IPTG (0.5 mM), and tetracycline (10 mg/L) were aseptically added to give the final concentration given in parentheses. The 250 mL baffled flasks containing 50 mL of the test medium were inoculated with the seed culture and were incubated at 35° C. and 300 rpm for 42 h in the incubator shaker. Samples of the culture were taken at various times and the optical density at 550 nm (OD550) was measured spectrophotometrically. The pH of these samples was also measured. After completion of the fermentation, the tyrosine and phenylalanine concentrations in the culture were measured using HPLC, as described supra.
# This experiment was repeated using pHS in place of pHCA.
# [3] = Partition of pHS between organic solvent and aqueous medium, two-phase flask fermentation; type: physicochemical; conditions: 15 h, 35° C.
# Description: Samples were analyzed for tyrosine, phenylalanine, CA, pHCA, and pHS using reverse-phase chromatography with an Agilent HP1100 HPLC system equipped with an autosampler, diode-array detector, and ChemStation for data acquisition and processing (Agilent Technologies, Inc., Wilmington, Del.). The analyses were done using a 4.6 mm×15 cm Zorbax SB-C18 column (3.5 μm particle size), obtained from Agilent Technologies, Inc., thermostated at 35° C. The samples were run using a flow rate of 1.0 mL/min with an eight-minute solvent gradient from 5% acetonitrile/water, containing 0.1% trifluoroacetic acid, to 80% acetonitrile/water, containing 0.1% trifluoroacetic acid. A diode-array detector set at 210, 260, and 280 nm was used to detect the various compounds at their optimum absorbance wavelength.
# The aqueous samples were diluted 1:3 with water, while the organic samples were diluted 1:3 with acetonitrile before injection of 50 μL of the sample into the HPLC. A standard mixture of the analytes was prepared by mixing equal portions of solutions of the individual components, each at a concentration of 1 mg/mL.
# The strain used in this study was E. coli WWQ51.1, as described in Example 3. […] The OD550, pH, glucose concentration and the pHS concentration of the aqueous phases were measured as described in Example 3. The organic phases were analyzed for pHS using HPLC, as described supra.
# [4] = tested on: P. putida strain S12 (ATCC No. 700801); test: Effect of pHS on the growth of Pseudomonas putida; type: cell-based; conditions: for Growth Rate, %: percentage of growth without pHS
# Description: This study was done using P. putida strain S12 (ATCC No. 700801), obtained from the American Type Culture Collection. This P. putida strain was grown at 30° C. in 20 mL of LB medium containing 0.25% glucose and 10 mM MgSO4 in a 125 mL baffled flask until stationary phase was achieved. Aliquots from this stationary phase culture were plated on LB agar plates containing 0.25% glucose, 10 mM MgSO4, and 1 g/L pHS, and incubated at 30° C. for several days. Colonies from these plates were streaked on identical plates and grown as described above. An individual colony from these plates was used to inoculate 20 mL of liquid LB medium containing 0.5% glucose, 10 mM MgSO4 and 1 g/L pHS. This culture was grown in a 125 mL baffled flask at 30° C. and 200 rpm in an incubator shaker until stationary phase was achieved. These stationary phase cells (0.5 mL) were added to 20 mL of a test medium consisting of LB medium, 0.5% glucose, 10 mM MgSO4 and either 0, 1.0, or 1.25 g/L pHS. These cultures were grown in 125 mL baffled flasks at 30° C. and 200 rpm in an incubator shaker. Cell growth in these cultures was monitored by taking aliquots, diluting them with an equal volume of 1,2-propanediol, and measuring the OD at 600 nm. These OD measurements were used to calculate the doubling time and growth rate as a percentage of growth observed in the test medium without pHS.
structure (smiles),measurement,setting,value
"C=Cc1ccc(O)cc1 [pHS, para-hydroxystyrene]",OD550 24 h,[1],15.7 and 12.5
same,concentration at which complete inhibition of growth / no growth was observed,[2],0.4 g/L
same,concentration that inhibited cell growth,[2],0.2 g/L
same,pHS Partition coeff,[3]; 20 mL 2-undecanone / 50 mL test medium,20 and 23
same,pHS Partition coeff,[3]; 20 mL DBE / 50 mL test medium,29 and 30 and 31
same,Doubling Time,"[4]; pHS 1.0 g/L, pHS-adapted cells, LB medium, 30° C.",118 min
same,"Growth Rate, %",[4]; pHS 1.0 g/L,85%
same,Doubling Time,[4]; pHS 1.25 g/L,111 min
same,"Growth Rate, %",[4]; pHS 1.25 g/L,90%
